Reference: patent US9023859B2, “Composition and method for treating or preventing skeletal muscle fibrosis” (State of Israel, Ministry of Agriculture, Agricultural …, priority 2007, dated 2015)

Tests used:
[1] = test system: myostatin gene expression; experiment: Myostatin gene expression in fibrotic liver (preliminary experiments); format: in vivo
Mdx mice [2] = experiment: Collagen content (Sirius red) and collagen α1(I) gene expression (in situ hybridization) in quadriceps and tibialis muscles; format: in vivo; details: I.P. 3 μg/mouse every other day, 4 weeks from 5 weeks of age
Protocol: Mdx mice were treated either with halofuginone by I.P. injection every other day (3 μg/mouse) starting at 5 weeks of age for 4 weeks, or with saline vehicle. C57B mice were used as controls. At the end of the 4 week period, tibialis anterior (fast) and quadriceps (slow) muscles were removed for evaluation of fibrosis by Sirius red staining for collagen content, and by in situ hybridization of collagen α1(I) gene expression.

Mdx mice [3] = experiment: Effect on fibrosis (collagen by Sirius red, image analysis) in diaphragm, gastrochnemius and tibialis muscles; format: in vivo; details: I.P. 5 μg/mouse every other day; for reduction of collagen levels: diaphragm; for reduction of collagen content: gastrochnemius
Protocol: Halofuginone was administered by I.P injection to mdx mice (n=7) from 3 weeks of age every other day at a concentration of 5 μg/mouse. The wild type (C57/BL) and mdx mice without halofuginone served as controls. At the age of 7 and 11 weeks the mice were sacrificed and the diaphragm, gastrochnemius and the tibialis were fixed for histology and samples were frozen for further analysis. Sections were stained for collagen by Sirius red and with methyl green as a counter stain. Image analysis using the Image Pro software was performed for statistical evaluation of the effect of halofuginone on collagen content. For the image analysis, images were taken from 3 animals/group and 4 replicates from each animal/tissue. The results are the ratio of red (R) to green color (G).

Mdx mice [4] = experiment: Effect on muscle regeneration (diaphragm central nuclei counting); format: in vivo, mouse; details: 5 μg or 7.5 μg for 1 or 2 months from 3 weeks of age; dose-dependent
Protocol: Mdx mice were treated with halofuginone 5 μg or 7.5 μg for 1 or 2 months starting at age of 3 weeks. The untreated mdx mice served as controls. At the end of the experiment, the diaphragms were taken for hematoxyline & eosin staining before central nuclei counting. The results are the mean±SE of 20 photos taken from 3 different mice. Each photo contained approximately 120 fibers

O=C(CC1NCCC[C@H]1O)Cn1cnc2cc(Br)c(Cl)cc2c1=O (stereo in doubt) [halofuginone, 7-bromo-6-chloro-3-[3-(3-hydroxy-2-piperidinyl)-2-oxopropyl]-4(3H)-quinazolinone]
myostatin gene expression [1]: inhibition | increase in amount of collagen fibers in mdx muscles (Mdx mice [2]; Sirius red): almost completely prevented | increase in expression of collagen α1(I) gene in mdx muscles (Mdx mice [2]; in situ hybridization): almost completely prevented | reduction of collagen levels (Mdx mice [3]; 7 weeks of age (4 weeks of treatment)): 25% | reduction of collagen levels (Mdx mice [3]; 11 weeks of age (8 weeks of treatment)): 53% | reduction of collagen content (Mdx mice [3]; 7 weeks of age): 25% | reduction of collagen content (Mdx mice [3]; 11 weeks of age): 33% | effect on collagen content (Mdx mice [3]; tibialis muscle): No effect | number of diaphragm central nuclei (Mdx mice [4]): major reduction
